According to ChEMBL document CHEMBL5058649, “Data for DCP probe BAY 1816032” (2022):

Key:
[1] = target: T1, 5-hydroxytryptamine receptor 1D (Homo sapiens, UniProt P28221); experiment: GPCRScan assay: inhibition of 5-HT1D; set-up: radioligand conc. used [nm] 1.0 – 2.0, parental cells HEKT
[2] = target: 5-hydroxytryptamine receptor 6 (Homo sapiens, UniProt P50406); experiment: GPCRScan assay: inhibition of 5-HT6; set-up: radioligand conc. used [nm] 2.0 – 4.0, parental cells stable HEK
[3] = target: T2, Sodium-dependent noradrenaline transporter (Homo sapiens, UniProt P23975); experiment: GPCRScan assay: inhibition of NET; set-up: radioligand conc. used [nm] 1.3 – 5.0, parental cells stable HEK
T2 sequence (P23975 whole entry): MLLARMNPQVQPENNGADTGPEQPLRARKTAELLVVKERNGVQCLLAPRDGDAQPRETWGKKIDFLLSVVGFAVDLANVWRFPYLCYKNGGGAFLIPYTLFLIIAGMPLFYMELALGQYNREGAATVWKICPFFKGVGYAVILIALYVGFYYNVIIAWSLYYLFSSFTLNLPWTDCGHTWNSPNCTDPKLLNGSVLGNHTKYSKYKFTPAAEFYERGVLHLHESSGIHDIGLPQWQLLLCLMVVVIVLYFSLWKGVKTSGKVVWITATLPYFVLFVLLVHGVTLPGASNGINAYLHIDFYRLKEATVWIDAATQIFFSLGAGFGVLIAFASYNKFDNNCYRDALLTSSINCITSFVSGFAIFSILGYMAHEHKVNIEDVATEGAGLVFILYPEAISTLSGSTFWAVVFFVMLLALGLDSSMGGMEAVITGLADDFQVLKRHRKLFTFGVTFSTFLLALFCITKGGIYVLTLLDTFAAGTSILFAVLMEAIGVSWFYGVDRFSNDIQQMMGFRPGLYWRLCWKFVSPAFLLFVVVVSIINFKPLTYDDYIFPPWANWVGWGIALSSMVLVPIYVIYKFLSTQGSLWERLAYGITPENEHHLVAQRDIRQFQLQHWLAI

[4] = target: T3, Sodium-dependent dopamine transporter (Homo sapiens, UniProt Q01959); experiment: GPCRScan assay: inhibition of DAT; set-up: radioligand conc. used [nm] 3.6 – 16.0, parental cells stable HEK
T3 sequence (Q01959 whole entry): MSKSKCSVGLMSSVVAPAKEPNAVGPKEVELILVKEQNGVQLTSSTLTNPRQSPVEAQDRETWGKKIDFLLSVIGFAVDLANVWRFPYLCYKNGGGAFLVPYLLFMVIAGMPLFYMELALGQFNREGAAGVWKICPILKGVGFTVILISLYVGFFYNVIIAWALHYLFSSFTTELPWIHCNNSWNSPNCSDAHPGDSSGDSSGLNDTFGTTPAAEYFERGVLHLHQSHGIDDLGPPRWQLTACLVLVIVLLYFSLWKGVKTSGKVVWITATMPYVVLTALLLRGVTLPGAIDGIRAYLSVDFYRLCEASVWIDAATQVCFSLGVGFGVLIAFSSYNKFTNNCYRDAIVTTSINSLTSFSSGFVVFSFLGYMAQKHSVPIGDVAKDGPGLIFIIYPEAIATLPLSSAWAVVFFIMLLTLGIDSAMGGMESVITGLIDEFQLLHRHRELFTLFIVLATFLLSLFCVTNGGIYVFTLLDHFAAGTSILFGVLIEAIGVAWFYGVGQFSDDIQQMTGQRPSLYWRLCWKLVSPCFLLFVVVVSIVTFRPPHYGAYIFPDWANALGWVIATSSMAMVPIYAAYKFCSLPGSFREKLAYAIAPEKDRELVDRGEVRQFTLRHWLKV

[5] = target: T4, Sigma intracellular receptor 2 (Homo sapiens, UniProt Q5BJF2); experiment: GPCRScan assay: inhibition of Sigma 2; set-up: radioligand conc. used [nm] 5.0, parental cells HEKT
T4 sequence (Q5BJF2 whole entry): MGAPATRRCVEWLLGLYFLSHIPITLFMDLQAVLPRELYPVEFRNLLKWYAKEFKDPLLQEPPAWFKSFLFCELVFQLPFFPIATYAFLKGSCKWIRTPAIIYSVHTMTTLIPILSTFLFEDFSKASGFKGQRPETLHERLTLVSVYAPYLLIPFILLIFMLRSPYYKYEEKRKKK

[6] = target: T5, Sigma non-opioid intracellular receptor 1 (Homo sapiens, UniProt Q99720); experiment: GPCRScan assay: inhibition of Sigma 1; set-up: radioligand conc. used [nm] 4.0 – 5.0, parental cells HEKT
T5 sequence (Q99720 whole entry): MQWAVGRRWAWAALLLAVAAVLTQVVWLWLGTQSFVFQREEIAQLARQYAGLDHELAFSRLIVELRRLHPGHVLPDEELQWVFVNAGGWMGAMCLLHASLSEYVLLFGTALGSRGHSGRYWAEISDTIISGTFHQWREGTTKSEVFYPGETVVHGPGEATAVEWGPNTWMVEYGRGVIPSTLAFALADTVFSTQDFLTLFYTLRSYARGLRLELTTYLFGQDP

[7] = target: T6, Mitotic checkpoint serine/threonine-protein kinase BUB1 (Homo sapiens, UniProt O43683); experiment: BUB1 biochemical assay (low ATP)
T6 sequence (O43683 whole entry): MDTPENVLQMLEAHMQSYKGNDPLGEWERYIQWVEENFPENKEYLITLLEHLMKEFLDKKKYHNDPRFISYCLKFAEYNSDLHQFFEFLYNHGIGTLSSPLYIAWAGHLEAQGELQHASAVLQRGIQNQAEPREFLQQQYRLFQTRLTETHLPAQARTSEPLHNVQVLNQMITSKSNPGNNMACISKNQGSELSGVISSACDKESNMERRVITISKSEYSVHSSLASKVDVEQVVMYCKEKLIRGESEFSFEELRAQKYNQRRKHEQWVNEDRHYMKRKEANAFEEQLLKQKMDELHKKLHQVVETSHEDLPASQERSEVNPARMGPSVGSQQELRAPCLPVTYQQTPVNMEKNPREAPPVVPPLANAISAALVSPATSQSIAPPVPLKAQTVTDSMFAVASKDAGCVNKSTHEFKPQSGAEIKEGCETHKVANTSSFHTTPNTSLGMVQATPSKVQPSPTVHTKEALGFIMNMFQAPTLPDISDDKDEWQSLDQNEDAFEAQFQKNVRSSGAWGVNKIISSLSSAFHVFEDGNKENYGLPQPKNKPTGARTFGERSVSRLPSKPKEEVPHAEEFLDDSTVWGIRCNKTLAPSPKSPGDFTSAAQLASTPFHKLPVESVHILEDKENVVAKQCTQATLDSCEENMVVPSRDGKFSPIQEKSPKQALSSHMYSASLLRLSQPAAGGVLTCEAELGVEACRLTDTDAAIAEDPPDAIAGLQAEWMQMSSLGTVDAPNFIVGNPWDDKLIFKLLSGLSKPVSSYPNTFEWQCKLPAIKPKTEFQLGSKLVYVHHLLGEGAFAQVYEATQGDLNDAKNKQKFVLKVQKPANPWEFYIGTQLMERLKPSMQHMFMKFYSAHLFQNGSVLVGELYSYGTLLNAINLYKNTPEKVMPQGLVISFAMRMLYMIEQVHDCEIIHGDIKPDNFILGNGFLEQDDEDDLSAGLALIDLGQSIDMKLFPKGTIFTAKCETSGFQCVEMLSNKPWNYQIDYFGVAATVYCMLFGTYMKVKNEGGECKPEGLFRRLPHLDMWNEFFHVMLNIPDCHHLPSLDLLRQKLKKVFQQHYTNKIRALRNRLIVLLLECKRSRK

[8] = target: T6, Mitotic checkpoint serine/threonine-protein kinase BUB1; experiment: BUB1 biochemical assay (high ATP)
[9] = target: 5-hydroxytryptamine receptor 1A (Homo sapiens) (UniProt P08908); conditions: Compound concentration 10.0 uM
[10] = target: 5-hydroxytryptamine receptor 1B (Homo sapiens) (UniProt P28222); conditions: Compound concentration 10.0 uM
[11] = target: T1, 5-hydroxytryptamine receptor 1D; conditions: Compound concentration 10.0 uM
[12] = target: 5-hydroxytryptamine receptor 1E (Homo sapiens) (UniProt P28566); conditions: Compound concentration 10.0 uM
[13] = target: 5-hydroxytryptamine receptor 2A (Homo sapiens) (UniProt P28223); conditions: Compound concentration 10.0 uM
[14] = target: 5-hydroxytryptamine receptor 2B (Homo sapiens) (UniProt P41595); conditions: Compound concentration 10.0 uM
[15] = target: 5-hydroxytryptamine receptor 3A (Homo sapiens) (UniProt P46098); conditions: Compound concentration 10.0 uM
[16] = target: 5-hydroxytryptamine receptor 5A (Homo sapiens) (UniProt P47898); conditions: Compound concentration 10.0 uM
[17] = target: 5-hydroxytryptamine receptor 7 (Homo sapiens, UniProt P34969); conditions: Compound concentration 10.0 uM
[18] = target: D(1A) dopamine receptor (Homo sapiens) (UniProt P21728); conditions: Compound concentration 10.0 uM
[19] = target: D(2) dopamine receptor (Homo sapiens) (UniProt P14416); conditions: Compound concentration 10.0 uM
[20] = target: D(3) dopamine receptor (Homo sapiens) (UniProt P35462); conditions: Compound concentration 10.0 uM
[21] = target: D(4) dopamine receptor (Homo sapiens) (UniProt P21917); conditions: Compound concentration 10.0 uM
[22] = target: D(1B) dopamine receptor (Homo sapiens) (UniProt P21918); conditions: Compound concentration 10.0 uM
[23] = target: Sodium-dependent serotonin transporter (Homo sapiens) (UniProt P31645); conditions: Compound concentration 10.0 uM
[24] = target: T2, Sodium-dependent noradrenaline transporter; conditions: Compound concentration 10.0 uM
[25] = target: T3, Sodium-dependent dopamine transporter; conditions: Compound concentration 10.0 uM
[26] = target: Mu-type opioid receptor (Homo sapiens) (UniProt P35372); conditions: Compound concentration 10.0 uM
Mu-type opioid receptor (Homo sapiens), sequence (P35372 whole entry): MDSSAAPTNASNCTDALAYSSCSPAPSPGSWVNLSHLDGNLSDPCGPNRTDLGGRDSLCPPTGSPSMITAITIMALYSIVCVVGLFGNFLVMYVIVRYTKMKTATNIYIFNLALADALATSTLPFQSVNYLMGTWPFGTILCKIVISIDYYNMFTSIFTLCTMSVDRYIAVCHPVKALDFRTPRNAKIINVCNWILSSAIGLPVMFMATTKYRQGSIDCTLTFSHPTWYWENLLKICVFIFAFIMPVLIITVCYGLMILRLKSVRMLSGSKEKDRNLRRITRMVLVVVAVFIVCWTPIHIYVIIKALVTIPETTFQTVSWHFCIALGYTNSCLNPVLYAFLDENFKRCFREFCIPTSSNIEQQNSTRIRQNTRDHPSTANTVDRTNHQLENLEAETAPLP

[27] = target: Delta-type opioid receptor (Homo sapiens) (UniProt P41143); conditions: Compound concentration 10.0 uM
[28] = target: Kappa-type opioid receptor (Homo sapiens) (UniProt P41145); conditions: Compound concentration 10.0 uM
[29] = target: Histamine H1 receptor (Homo sapiens) (UniProt P35367); conditions: Compound concentration 10.0 uM
[30] = target: Histamine H2 receptor (Homo sapiens) (UniProt P25021); conditions: Compound concentration 10.0 uM
Histamine H2 receptor (Homo sapiens), sequence (P25021 whole entry): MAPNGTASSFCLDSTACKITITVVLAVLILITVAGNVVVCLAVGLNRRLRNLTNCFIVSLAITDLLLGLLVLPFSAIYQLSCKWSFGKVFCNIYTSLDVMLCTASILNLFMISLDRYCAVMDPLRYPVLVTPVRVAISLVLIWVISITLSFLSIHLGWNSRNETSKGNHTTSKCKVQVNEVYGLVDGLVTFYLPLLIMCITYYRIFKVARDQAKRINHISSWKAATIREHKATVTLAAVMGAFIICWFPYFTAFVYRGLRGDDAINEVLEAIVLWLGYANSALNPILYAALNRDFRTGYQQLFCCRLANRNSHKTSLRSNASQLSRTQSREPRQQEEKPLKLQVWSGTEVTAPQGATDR

[31] = target: Histamine H4 receptor (Homo sapiens) (UniProt Q9H3N8); conditions: Compound concentration 10.0 uM
[32] = target: Alpha-1A adrenergic receptor (Homo sapiens) (UniProt P35348); conditions: Compound concentration 10.0 uM
[33] = target: Alpha-1B adrenergic receptor (Homo sapiens) (UniProt P35368); conditions: Compound concentration 10.0 uM
[34] = target: T7, Alpha-2A adrenergic receptor (Homo sapiens) (UniProt P08913); conditions: Compound concentration 10.0 uM
T7 sequence (whole entry): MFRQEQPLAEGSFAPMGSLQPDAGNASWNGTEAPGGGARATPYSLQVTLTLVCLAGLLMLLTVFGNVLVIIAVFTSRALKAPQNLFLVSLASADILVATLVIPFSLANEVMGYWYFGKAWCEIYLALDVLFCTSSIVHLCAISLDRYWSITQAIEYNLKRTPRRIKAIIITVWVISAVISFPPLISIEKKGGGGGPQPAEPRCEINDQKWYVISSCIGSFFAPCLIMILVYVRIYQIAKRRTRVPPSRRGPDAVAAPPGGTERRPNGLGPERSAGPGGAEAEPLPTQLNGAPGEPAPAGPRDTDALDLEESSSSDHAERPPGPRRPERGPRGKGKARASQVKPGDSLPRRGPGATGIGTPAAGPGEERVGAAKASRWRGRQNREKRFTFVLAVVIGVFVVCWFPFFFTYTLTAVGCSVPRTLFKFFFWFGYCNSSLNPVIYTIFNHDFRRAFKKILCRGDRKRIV

[35] = target: Alpha-2B adrenergic receptor (Homo sapiens) (UniProt P18089); conditions: Compound concentration 10.0 uM
[36] = target: Alpha-2C adrenergic receptor (Homo sapiens) (UniProt P18825); conditions: Compound concentration 10.0 uM
[37] = target: Beta-1 adrenergic receptor (Homo sapiens) (UniProt P08588); conditions: Compound concentration 10.0 uM
[38] = target: Muscarinic acetylcholine receptor M4 (Homo sapiens) (UniProt P08173); conditions: Compound concentration 10.0 uM
[39] = target: Beta-3 adrenergic receptor (Homo sapiens) (UniProt P13945); conditions: Compound concentration 10.0 uM
Rattus norvegicus = organism: Rattus norvegicus; conditions: Compound concentration 10.0 uM
[40] = target: Alpha-1D adrenergic receptor (Homo sapiens) (UniProt P25100); conditions: Compound concentration 10.0 uM
Alpha-1D adrenergic receptor (Homo sapiens), sequence (P25100 whole entry): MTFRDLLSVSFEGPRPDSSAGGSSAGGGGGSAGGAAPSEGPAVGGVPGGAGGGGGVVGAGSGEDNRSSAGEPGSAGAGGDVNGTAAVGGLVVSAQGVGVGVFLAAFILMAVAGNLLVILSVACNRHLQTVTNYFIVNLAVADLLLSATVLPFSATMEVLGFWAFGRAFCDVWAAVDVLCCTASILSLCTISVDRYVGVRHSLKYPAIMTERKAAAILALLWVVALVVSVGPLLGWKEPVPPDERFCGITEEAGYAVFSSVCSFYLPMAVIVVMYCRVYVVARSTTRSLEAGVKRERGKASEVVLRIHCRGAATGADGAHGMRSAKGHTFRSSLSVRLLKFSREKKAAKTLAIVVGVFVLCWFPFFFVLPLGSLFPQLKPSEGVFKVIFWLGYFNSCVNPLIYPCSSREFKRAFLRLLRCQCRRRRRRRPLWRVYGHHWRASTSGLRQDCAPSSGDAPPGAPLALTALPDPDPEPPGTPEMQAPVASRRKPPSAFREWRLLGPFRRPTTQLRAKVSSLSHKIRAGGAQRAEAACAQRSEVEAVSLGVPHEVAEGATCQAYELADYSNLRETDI

[41] = target: T4, Sigma intracellular receptor 2; conditions: Compound concentration 10.0 uM
[42] = target: T5, Sigma non-opioid intracellular receptor 1; conditions: Compound concentration 10.0 uM

5-hydroxytryptamine receptor 6, sequence (P50406 whole entry): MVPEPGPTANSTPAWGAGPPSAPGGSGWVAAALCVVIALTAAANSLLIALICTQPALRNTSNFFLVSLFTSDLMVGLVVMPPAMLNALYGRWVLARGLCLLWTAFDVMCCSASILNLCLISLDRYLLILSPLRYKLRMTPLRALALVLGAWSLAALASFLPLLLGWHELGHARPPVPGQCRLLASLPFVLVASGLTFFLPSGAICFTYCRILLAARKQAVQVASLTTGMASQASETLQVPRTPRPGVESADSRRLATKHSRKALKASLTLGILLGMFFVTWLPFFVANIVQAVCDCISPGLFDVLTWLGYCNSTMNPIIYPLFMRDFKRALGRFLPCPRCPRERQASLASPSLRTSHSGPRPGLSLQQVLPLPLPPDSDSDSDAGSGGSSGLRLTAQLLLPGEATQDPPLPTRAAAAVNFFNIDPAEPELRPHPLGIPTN
T1 sequence (P28221 whole entry): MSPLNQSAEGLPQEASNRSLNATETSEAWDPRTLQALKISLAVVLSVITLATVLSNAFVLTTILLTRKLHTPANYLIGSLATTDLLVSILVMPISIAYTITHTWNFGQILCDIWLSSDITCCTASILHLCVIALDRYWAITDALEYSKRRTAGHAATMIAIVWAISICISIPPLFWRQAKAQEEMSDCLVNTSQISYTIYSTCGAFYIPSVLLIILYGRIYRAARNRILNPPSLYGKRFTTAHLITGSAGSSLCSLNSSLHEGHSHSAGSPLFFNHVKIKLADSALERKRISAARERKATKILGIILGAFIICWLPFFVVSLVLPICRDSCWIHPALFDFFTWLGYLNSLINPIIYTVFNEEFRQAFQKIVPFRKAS

`COc1ccccc1Nc1nc(-c2nn(Cc3c(F)cc(OCCCO)cc3F)c3ccccc23)ncc1OC` was tested, and the Ki [1] was 8.97 µM, the Ki [2] was greater than 10 µM and the pKi [2] was less than 5. The Ki [3] was 2.74 µM, the Ki ([4]; read-out: Ki) was 1.63 µM and the Ki ([4]; read-out: pKi (converted)) was 1.62 µM. The Ki [5] was 0.655 µM, the Ki [6] was 1.34 µM and the IC50 [7] was 1.7 µM (not active). For the same compound, the IC50 [8] was > 20 µM (not active), the inhibition [9] was 12.3% and the inhibition [10] was 33.8%. It also gave an inhibition [11] of 55.1%, an inhibition [12] of -3.71% and an inhibition [13] of 6.5%. The inhibition [14] was -3.83%, the inhibition [15] was -3.97% and the inhibition [16] was 3.77%. The inhibition [17] was -3.39%, the inhibition [18] was 41.3% and the inhibition [19] was 21.8%. It also gave an inhibition [20] of 20%, an inhibition [21] of 24.9% and an inhibition [22] of 26.8%. It also gave an inhibition [23] of 10.9%, an inhibition [24] of 58.7% and an inhibition [25] of 82.8%. For the same compound, the inhibition [26] was -9.7%, the inhibition [27] was -9.55% and the inhibition [28] was 17.5%. The inhibition [29] was 20.3%, the inhibition [30] was 28.7% and the inhibition [31] was 27.8%. For the same compound, the inhibition [32] was -6.1%, the inhibition [33] was -4.46% and the inhibition [34] was 28.9%. For the same compound, the inhibition [35] was 27.6%, the inhibition [36] was 12.9% and the inhibition [37] was 1.17%. The inhibition [38] was 9.26%, the inhibition [39] was 33.6% and the inhibition (Rattus norvegicus) was 13.9%. It also gave an inhibition [40] of 12.9%, an inhibition [41] of 69.2% and an inhibition [42] of 52.2%.
